Data published in patent US20060069132A1, “Azolecarboxamide herbicides” (priority 2004, published 2006).

Tests used:
[1] = system: barnyardgrass; test: Test B pre-/postemergence herbicide test; assay type: in vivo, Echinochloa crus-galli
Method in brief: (§1)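 Pre: seeds sown, then sprayed. Post: 1–4-leaf plants (2–18 cm) sprayed at the same time. Paddy: flooded, treated at 2-leaf stage. Formulation: non-phytotoxic solvent with surfactant. Greenhouse 13–15 days; visual 0–100 score relative to controls.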

[2] = system: Surinam grass; test: Test B pre-/postemergence herbicide test; assay type: in vivo, Urochloa decumbens
Method in brief: (§2)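 Response was scored visually 13 to 15 days after treatment against untreated greenhouse controls, 0 meaning no effect and 100 complete control. Formulations (solvent mixture plus surfactant) went onto soil after planting, onto foliage of 1- to 4-leaf plants, and onto 2-leaf plants in a flooded paddy set including rice and barnyardgrass.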

[3] = system: cocklebur; test: Test B pre-/postemergence herbicide test; assay type: in vivo, Xanthium strumarium
Method in brief: as §1

[4] = system: corn; test: Test B pre-/postemergence herbicide test; assay type: in vivo, Zea mays
Method in brief: as §2

[5] = system: large crabgrass; test: Test B pre-/postemergence herbicide test; assay type: in vivo, Digitaria sanguinalis
Method in brief: as §2

[6] = system: giant foxtail; test: Test B pre-/postemergence herbicide test; assay type: in vivo, Setaria faberi
Method in brief: as §2

[7] = system: lambsquarters; test: Test B pre-/postemergence herbicide test; assay type: in vivo, Chenopodium album
Method in brief: as §2

[8] = system: morningglory; test: Test B pre-/postemergence herbicide test; assay type: in vivo, Ipomoea coccinea
Method in brief: as §1

[9] = system: pigweed; test: Test B pre-/postemergence herbicide test; assay type: in vivo, Amaranthus retroflexus
Method in brief: as §2

[10] = system: velvetleaf; test: Test B pre-/postemergence herbicide test; assay type: in vivo, Abutilon theophrasti
Method in brief: as §2

[11] = system: wheat; test: Test B postemergence herbicide test; assay type: in vivo, Triticum aestivum; set-up: key to Wheat plant response rating: 0 = no effect, 100 = complete control
Method in brief: (§3)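 Postemergence plants were sprayed with formulated test chemicals at 2 to 18 cm height (1- to 4-leaf stage); paddy species were grown to the 2-leaf stage. After 13 to 15 days in a greenhouse, injury was rated visually against untreated controls on a 0–100 scale (0 = no effect, 100 = complete control).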

[12] = system: wild oat; test: Test B postemergence herbicide test; assay type: in vivo, Avena fatua
Method in brief: as §3

[13] = system: rice; test: Test B flooded paddy test; assay type: in vivo, Oryza sativa; conditions: 1000 g ai/ha, scale 0 to 100 (0 no effect, 100 complete control)
Method in brief: as §3

[14] = system: small flower umbrella sedge; test: Test B flooded paddy test; assay type: in vivo, Cyperus difformis; conditions: 1000 g ai/ha, scale 0 to 100 (0 no effect, 100 complete control)
Method in brief: (§4)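 Read-out: visual comparison with controls, scored 0 to 100, where 100 means complete control and 0 no effect. Formulated chemicals were applied postemergence to plants 2–18 cm tall (1- to 4-leaf), or to flooded-paddy plants at the 2-leaf stage, then held 13 to 15 days under glass.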

[15] = system: barnyardgrass; test: Test B flooded paddy test; assay type: in vivo, Echinochloa crus-galli; conditions: 1000 g ai/ha, scale 0 to 100 (0 no effect, 100 complete control)
Method in brief: as §4

[16] = 125 g ai/ha, 0 = no effect, 100 = complete control, preemergence
[17] = 125 g ai/ha, visual rating, scale 0 (no effect) to 100 (complete control), postemergence
[18] = 500 g ai/ha, visual rating, 0 = no effect, 100 = complete control, preemergence
[19] = postemergence, 500 g ai/ha, scale 0 to 100, 0 is no effect, 100 is complete control
[20] = Postemergence, 500 g ai/ha, visual rating after 13 to 15 days, scale 0 (no effect) to 100 (complete control)
[21] = Preemergence, 500 g ai/ha, scale 0 to 100
[22] = postemergence, 125 g ai/ha, visual rating, scale 0 (no effect) to 100 (complete control)
[23] = preemergence, 125 g ai/ha, 0 to 100 scale, 0 is no effect, 100 is complete control
[24] = 125 g ai/ha, 0 is no effect, 100 is complete control, preemergence
[25] = Postemergence, 500 g ai/ha, scale 0 (no effect) to 100 (complete control)

CCN(C)C(=O)c1ccc(F)c(NC(=O)C2CC(C(C)(C)C)=NN2CC)c1 (racemic) [Compound 307]
100: Plant response rating, Barnyardgrass [1, 18] | Plant response rating, Cocklebur [3, 18] | Plant response rating, Crabgrass, Large [5, 18] | Lambsquarters plant response rating (0 to 100 scale) [7, 16] | Plant response rating, Lambsquarters [7, 18] | Pigweed plant response rating (0 to 100 scale) [9, 16] | Plant response rating, Pigweed [9, 18] | Plant response rating, Velvetleaf [10, 18]
70: Surinam Grass plant response rating (0 to 100 scale) [2, 16] | Corn plant response rating (0 to 100 scale) [4, 16]
30: Surinam Grass plant response rating [2, 19] | Cocklebur plant response rating [3, 19] | Crabgrass, Large plant response rating [5, 19] | Foxtail, Giant plant response rating [6, 19]
60: Lambsquarters plant response rating [7, 17] | Pigweed plant response rating [9, 19] | Velvetleaf plant response rating [10, 19]
90: Plant response rating, Surinam Grass [2, 18] | Crabgrass, Large plant response rating (0 to 100 scale) [5, 16] | Foxtail, Giant plant response rating (0 to 100 scale) [6, 16] | Plant response rating, Foxtail, Giant [6, 18] | Rice plant response rating [13] | Sedge, Umbrella plant response rating [14] | Barnyardgrass plant response rating [15]
80: Barnyardgrass plant response rating (0 to 100 scale) [1, 16] | Cocklebur plant response rating (0 to 100 scale) [3, 16] | Plant response rating, Corn [4, 18] | Lambsquarters plant response rating [7, 19]
10: Barnyardgrass plant response rating [1, 19] | Surinam Grass plant response rating [2, 17] | Corn plant response rating [4, 19] | Crabgrass, Large plant response rating [5, 17] | Plant response rating, Morningglory [8, 18] | Velvetleaf plant response rating [10, 17]
50: Pigweed plant response rating [9, 17]
0: Barnyardgrass plant response rating [1, 17] | Morningglory plant response rating (0 to 100 scale) [8, 16] | Morningglory plant response rating [8, 17] | Morningglory plant response rating [8, 19] | Wheat plant response rating [11, 17] | Oat, Wild plant response rating [12, 17]
20: Cocklebur plant response rating [3, 17] | Foxtail, Giant plant response rating [6, 17] | Wheat plant response rating [11, 19] | Oat, Wild plant response rating [12, 19]

CCCN1CCc2c(NC(=O)c3cc(C(C)(C)C)nn3CC)cccc2C1=O [Compound 65]
50: Plant response rating, Barnyardgrass [1, 23] | Rice plant response rating ([13]; visual rating, 13 to 15 days)
40: Pigweed plant response rating [9, 22]
10: Plant response rating, Barnyardgrass [1, 20] | Barnyardgrass plant response rating [1, 22] | Plant response rating, Surinam Grass [2, 23] | Corn plant response rating [4, 21] | Crabgrass, Large plant response rating [5, 22] | Foxtail, Giant plant response rating [6, 22] | Morningglory plant response rating [8, 22] | Plant response rating, Velvetleaf [10, 20] | Velvetleaf plant response rating [10, 22] | Plant response rating, Velvetleaf [10, 23] | Plant response rating, Wheat [11, 20] | Oat, Wild plant response rating [12, 22]
90: Barnyardgrass plant response rating [1, 21] | Plant response rating, Pigweed [9, 23] | Sedge, Umbrella plant response rating ([14]; visual rating, 13 to 15 days)
70: Plant response rating, Lambsquarters [7, 20] | Lambsquarters plant response rating [7, 22]
60: Cocklebur plant response rating [3, 22] | Plant response rating, Pigweed [9, 20]
0: Cocklebur plant response rating [3, 21] | Plant response rating, Cocklebur [3, 23] | Plant response rating, Corn [4, 23] | Plant response rating, Morningglory [8, 23] | Wheat plant response rating [11, 22]
20: Plant response rating, Surinam Grass [2, 20] | Surinam Grass plant response rating [2, 22] | Plant response rating, Corn [4, 20] | Corn plant response rating [4, 22] | Plant response rating, Crabgrass, Large [5, 20] | Plant response rating, Crabgrass, Large [5, 23] | Plant response rating, Foxtail, Giant [6, 20] | Plant response rating, Foxtail, Giant [6, 23] | Plant response rating, Morningglory [8, 20] | Plant response rating, Oat, Wild [12, 20]
80: Plant response rating, Cocklebur [3, 20] | Crabgrass, Large plant response rating [5, 21] | Foxtail, Giant plant response rating [6, 21] | Plant response rating, Lambsquarters [7, 23] | Barnyardgrass plant response rating ([15]; visual rating, 13 to 15 days)

Cc1nn(C(C)(C)C)nc1C(=O)Nc1cccc(C(=O)N2CC=CC2)c1 [Compound 393]
100: Plant response rating (0 to 100 scale), Pigweed [9, 24] | Wheat plant response rating ([11]; 500 g ai/ha, scale 0 to 100, 0 no effect, 100 complete control, preemergence)
60: Cocklebur plant response rating [3, 25] | Lambsquarters plant response rating [7, 17] | Velvetleaf plant response rating [10, 25]
50: Morningglory plant response rating [8, 25] | Pigweed plant response rating [9, 25] | Plant response rating (0 to 100 scale), Velvetleaf [10, 24]
20: Barnyardgrass plant response rating [1, 25] | Corn plant response rating [4, 25] | Crabgrass, Large plant response rating [5, 25] | Foxtail, Giant plant response rating [6, 17] | Plant response rating (0 to 100 scale), Morningglory [8, 24]
0: Corn plant response rating [4, 17] | Wheat plant response rating [11, 17]
40: Plant response rating (0 to 100 scale), Corn [4, 24] | Pigweed plant response rating [9, 17] | Velvetleaf plant response rating [10, 17]
80: Plant response rating (0 to 100 scale), Surinam Grass [2, 24] | Plant response rating (0 to 100 scale), Foxtail, Giant [6, 24] | Lambsquarters plant response rating [7, 25] | Rice plant response rating [13]
10: Barnyardgrass plant response rating [1, 17] | Surinam Grass plant response rating [2, 17] | Surinam Grass plant response rating [2, 25] | Crabgrass, Large plant response rating [5, 17] | Wheat plant response rating [11, 25] | Oat, Wild plant response rating [12, 17]
90: Plant response rating (0 to 100 scale), Barnyardgrass [1, 24] | Plant response rating (0 to 100 scale), Crabgrass, Large [5, 24] | Plant response rating (0 to 100 scale), Lambsquarters [7, 24] | Sedge, Umbrella plant response rating [14] | Barnyardgrass plant response rating [15]
30: Plant response rating (0 to 100 scale), Cocklebur [3, 24] | Cocklebur plant response rating [3, 17] | Foxtail, Giant plant response rating [6, 25] | Morningglory plant response rating [8, 17] | Oat, Wild plant response rating [12, 25]
